Patent US20250152592A1, “PHARMACEUTICAL COMPOSITION COMPRISING ALLOPURINOL, FEBUXOSTAT OR PHARMACEUTICALLY ACCEPTABLE SALT THEREOF FOR PREVENTION OR TREATMENT OF CHRONIC KIDNEY DISEASE IN SUBJECT HAVING HIGH SERUM URIC ACID CONCENTRATION” (Indream Healthcare Inc., priority 2022, published 2025)

Key:
[1] = tested on: patients with gout and a history of major cardiovascular diseases; assay: eGFR over time by average serum uric acid concentration, analysis of clinical trial data; type: in vivo, human; details: febuxostat group
Experimental: (§1) In order to evaluate non-inferiority of febuxostat to allopurinol related to cardiovascular risk, a clinical trial was designed and proceeded.
(§2) A multicenter, randomized, double-blind non-inferiority trial was performed. The details of the clinical trial design have been published previously. An independent data and safety monitoring committee with access to unblinded data monitored the clinical trial. The statistical analysis for the data and the safety monitoring committee was performed by an independent statistical group (WebbWrites).
(§3) The patients were regarded as having a history of major cardiovascular diseases, if they had myocardial infarction, hospitalization for unstable angina, stroke, hospitalization for transient ischemic attack, peripheral vascular disease, or diabetes mellitus symptoms. All participants provided a prior informed consent form.
(§4) The patients were randomly assigned so that they received febuxostat or allopurinol administered once a day in a double-blind manner. The randomization was stratified according to the estimated creatinine clearance at baseline (patient group having an estimated creatinine clearance ≥60 ml per minute vs patient group having an estimated creatinine clearance ≥30 and <60 ml per minute).
(§5) The dose of allopurinol was modified according to a kidney function. The patients with the estimated creatinine clearance 60 ml or more per minute i) initially received allopurinol at a dose of 300 mg once a day, and the dose was increased in 100 mg increments monthly until the patient had the serum uric acid concentration of less than 6.0 mg per deciliter or the dosage of allopurinol was 600 mg once a day. The patient having the estimated creatinine clearance of 30 ml or more and less than 60 ml per minute initially received 200 mg of allopurinol, and then the dose was increased in 100 mg increments until the patient either had the serum uric acid concentration of less than 6.0 mg per deciliter or was receiving the allopurinol dose of 400 mg once daily.
(§6) The dose of febuxostat was not modified according to the kidney function. The patients who were randomly assigned to receive febuxostat initially received 40 mg once a daily, and continued to receive the same dosage if the serum uric acid concentration was less than 6.0 mg per deciliter after 2 weeks of the treatment. If the serum uric acid concentration was higher than 6.0 mg per deciliter at 2nd week visit, the dose of febuxostat was increased to 80 mg once daily for the remainder of the trial.
(§7) During the period, the administration of a double-blind and double-dummy trial medications was guided by an interactive voice-response system which was a procedure to prevent unblinding for the patients whose dose was not adjusted. After completing dose adjustment, the urate level was concealed from the investigators, and the treatment was managed throughout the trial using the interactive voice-response system.
(§8) Outpatient visits were conducted according to the following schedule: during screening and randomization, and at 2, 4, 6, 8, 10, 12, and 24 weeks after the randomization, and every 6 months during the subsequent years of the trial. The patients with reduced kidney function or, the patients aged 65 years or older at randomization were visited at 9 and 15 months for monitoring the serum chemical profile. If the patient agreed to be monitored, but would not return for study visit, telephone contact was made, but such method was not preferred or recommended.
In order to confirm the effect of allopurinol and febuxostat on the kidney disease, the data obtained in the clinical trial described above was analyzed.

[2] = tested on: patients with gout and a history of major cardiovascular diseases; assay: clinical trial febuxostat vs allopurinol: serum uric acid, gout flare, treatment discontinuation; type: in vivo, human
Experimental: as §1, §2, §3, §4, §5, §6, §7, §8

[3] = post-marketing study, Arthritis Research & Therapy volume 21, Article number: 229 (2019); cited from earlier work

Compound: Cc1nc(-c2ccc(OCC(C)C)c(C#N)c2)sc1C(=O)O [febuxostat]
- eGFR Mean (95% CI) ([1]; DBP <80, Average UA <6, Month 18): 63.11 (61.75-64.47) ml/min/1.73 m^2
- eGFR Mean (95% CI) ([1]; DBP <80, Average UA <6, Month 24): 63.79 (62.31-65.27) ml/min/1.73 m^2
- eGFR Mean (95% CI) ([1]; DBP <80, Average UA <6, Month 30): 63.51 (61.89-65.13) ml/min/1.73 m^2
- eGFR Mean (95% CI) ([1]; DBP <80, Average UA <6, Month 36): 64.28 (62.56-66.00) ml/min/1.73 m^2
- eGFR Mean (95% CI) ([1]; DBP <80, Average UA <6, Month 42): 64.43 (62.50-66.35) ml/min/1.73 m^2
- eGFR Mean (95% CI) ([1]; DBP <80, Average UA <6, Month 48): 65.60 (63.48-67.72) ml/min/1.73 m^2
- eGFR Mean (95% CI) ([1]; DBP <80, Average UA <6, Month 54): 65.70 (63.39-68.00) ml/min/1.73 m^2
- eGFR Mean (95% CI) ([1]; DBP <80, Average UA <6, Month 60): 66.92 (64.25-69.59) ml/min/1.73 m^2
- eGFR Mean (95% CI) ([1]; DBP <80, Average UA <6, Week 2): 62.06 (60.81-63.31) ml/min/1.73 m^2
- eGFR Mean (95% CI) ([1]; DBP <80, Average UA ≥6, Baseline): 62.08 (59.70-64.45) ml/min/1.73 m^2
- eGFR Mean (95% CI) ([1]; DBP <80, Average UA ≥6, Month 3): 61.44 (58.99-63.89) ml/min/1.73 m^2
- eGFR Mean (95% CI) ([1]; DBP <80, Average UA ≥6, Month 6): 61.49 (59.02-63.95) ml/min/1.73 m^2
- eGFR Mean (95% CI) ([1]; DBP <80, Average UA ≥6, Month 12): 60.74 (58.06-63.41) ml/min/1.73 m^2
- eGFR Mean (95% CI) ([1]; DBP <80, Average UA ≥6, Month 18): 60.18 (57.20-63.15) ml/min/1.73 m^2
- eGFR Mean (95% CI) ([1]; DBP <80, Average UA ≥6, Month 24): 60.32 (57.11-63.53) ml/min/1.73 m^2
- eGFR Mean (95% CI) ([1]; DBP <80, Average UA ≥6, Month 30): 59.54 (55.89-63.19) ml/min/1.73 m^2
- eGFR Mean (95% CI) ([1]; DBP <80, Average UA ≥6, Month 36): 60.26 (56.16-64.37) ml/min/1.73 m^2
- eGFR Mean (95% CI) ([1]; DBP <80, Average UA ≥6, Month 42): 59.55 (55.09-64.02) ml/min/1.73 m^2
- eGFR Mean (95% CI) ([1]; DBP <80, Average UA ≥6, Month 48): 59.84 (55.23-64.46) ml/min/1.73 m^2
- eGFR Mean (95% CI) ([1]; DBP <80, Average UA ≥6, Month 54): 60.35 (55.08-65.62) ml/min/1.73 m^2
- eGFR Mean (95% CI) ([1]; DBP <80, Average UA ≥6, Month 60): 60.01 (53.34-66.68) ml/min/1.73 m^2
- eGFR Mean (95% CI) ([1]; DBP <80, Average UA ≥6, Week 2): 62.00 (59.39-64.62) ml/min/1.73 m^2
- eGFR Mean (95% CI) ([1]; SBP <130, Average UA <6, Baseline): 64.76 (63.32-66.20) ml/min/1.73 m^2
- eGFR Mean (95% CI) ([1]; SBP <130, Average UA <6, Month 3): 64.67 (63.21-66.12) ml/min/1.73 m^2
- eGFR Mean (95% CI) ([1]; SBP <130, Average UA <6, Month 6): 64.87 (63.38-66.36) ml/min/1.73 m^2
- eGFR Mean (95% CI) ([1]; SBP <130, Average UA <6, Month 12): 66.06 (64.55-67.57) ml/min/1.73 m^2
- eGFR Mean (95% CI) ([1]; SBP <130, Average UA <6, Month 18): 66.18 (64.56-67.79) ml/min/1.73 m^2
- eGFR Mean (95% CI) ([1]; SBP <130, Average UA <6, Month 24): 66.12 (64.42-67.83) ml/min/1.73 m^2
- eGFR Mean (95% CI) ([1]; SBP <130, Average UA <6, Month 30): 66.59 (64.74-68.44) ml/min/1.73 m^2
- eGFR Mean (95% CI) ([1]; SBP <130, Average UA <6, Month 36): 67.47 (65.55-69.39) ml/min/1.73 m^2
- eGFR Mean (95% CI) ([1]; SBP <130, Average UA <6, Month 42): 66.93 (64.77-69.08) ml/min/1.73 m^2
- eGFR Mean (95% CI) ([1]; SBP <130, Average UA <6, Month 48): 68.21 (65.88-70.54) ml/min/1.73 m^2
- eGFR Mean (95% CI) ([1]; SBP <130, Average UA <6, Month 54): 68.62 (66.03-71.22) ml/min/1.73 m^2
- eGFR Mean (95% CI) ([1]; SBP <130, Average UA <6, Month 60): 69.36 (66.42-72.30) ml/min/1.73 m^2
- eGFR Mean (95% CI) ([1]; SBP <130, Average UA <6, Week 2): 65.16 (63.69-66.63) ml/min/1.73 m^2
- eGFR Mean (95% CI) ([1]; SBP <130, Average UA ≥6, Baseline): 65.83 (63.23-68.44) ml/min/1.73 m^2
- eGFR Mean (95% CI) ([1]; SBP <130, Average UA ≥6, Month 3): 65.54 (62.88-68.20) ml/min/1.73 m^2
- eGFR Mean (95% CI) ([1]; SBP <130, Average UA ≥6, Month 6): 65.87 (63.30-68.43) ml/min/1.73 m^2
- eGFR Mean (95% CI) ([1]; SBP <130, Average UA ≥6, Month 12): 65.19 (62.39-67.99) ml/min/1.73 m^2
- eGFR Mean (95% CI) ([1]; SBP <130, Average UA ≥6, Month 18): 63.60 (60.49-66.71) ml/min/1.73 m^2
- eGFR Mean (95% CI) ([1]; SBP <130, Average UA ≥6, Month 24): 62.90 (59.50-66.30) ml/min/1.73 m^2
- eGFR Mean (95% CI) ([1]; SBP <130, Average UA ≥6, Month 30): 62.62 (58.76-66.48) ml/min/1.73 m^2
- eGFR Mean (95% CI) ([1]; SBP <130, Average UA ≥6, Month 36): 65.24 (60.84-69.64) ml/min/1.73 m^2
- eGFR Mean (95% CI) ([1]; SBP <130, Average UA ≥6, Month 42): 65.47 (60.56-70.39) ml/min/1.73 m^2
- eGFR Mean (95% CI) ([1]; SBP <130, Average UA ≥6, Month 48): 64.82 (59.40-70.23) ml/min/1.73 m^2
- eGFR Mean (95% CI) ([1]; SBP <130, Average UA ≥6, Month 54): 65.92 (59.74-72.11) ml/min/1.73 m^2
- eGFR Mean (95% CI) ([1]; SBP <130, Average UA ≥6, Month 60): 64.71 (57.42-72.01) ml/min/1.73 m^2
- eGFR Mean (95% CI) ([1]; SBP <130, Average UA ≥6, Week 2): 65.59 (62.82-68.36) ml/min/1.73 m^2
- proportion of patients with maintenance of serum uric acid concentration at less than 6.0 mg per deciliter ([2]; after 2nd week, at most times, febuxostat group vs allopurinol group): a higher proportion of the patients in the febuxostat group
- proportion of patients with serum uric acid concentration of less than 6.0 mg per deciliter ([2]; at the 2nd week, febuxostat group vs allopurinol group): higher in the febuxostat group than in the allopurinol group
- proportion of patients with serum uric acid concentration of less than 5.0 mg per deciliter ([2]; entire trial, febuxostat group vs allopurinol group): a larger proportion of the patients in the febuxostat group than in the allopurinol group
- rate of gout flare ([2]; overall, during the trial): 0.68 per patient-year
- acute renal failure reported more often [3]: 5.7 times
